In patent publication US8389513B2, “2-amino-5,5-difluoro-5,6-dihydro-4H-[1,3]oxazin-4-yl)-phenyl]-amides” (Hoffmann-La Roche Inc., priority 2009, dated 2013) one finds IC50 and response vs control in vivo data, which are given here for eleven compounds.

The IC50 is the midpoint of a concentration-inhibition curve.

The structures appear in SMILES notation.

For one test, the target named is T1, BACE2 (Rattus norvegicus, UniProt Q6IE75).
T1 construct: endogenous cellular BACE2 in the Ins1e rat cell line; endogenous in cells; host or cells: INS-TMEM27 (INS1e-derived rat cell line with TetOn-inducible full-length hTMEM27)
T1 sequence (Q6IE75 63-514): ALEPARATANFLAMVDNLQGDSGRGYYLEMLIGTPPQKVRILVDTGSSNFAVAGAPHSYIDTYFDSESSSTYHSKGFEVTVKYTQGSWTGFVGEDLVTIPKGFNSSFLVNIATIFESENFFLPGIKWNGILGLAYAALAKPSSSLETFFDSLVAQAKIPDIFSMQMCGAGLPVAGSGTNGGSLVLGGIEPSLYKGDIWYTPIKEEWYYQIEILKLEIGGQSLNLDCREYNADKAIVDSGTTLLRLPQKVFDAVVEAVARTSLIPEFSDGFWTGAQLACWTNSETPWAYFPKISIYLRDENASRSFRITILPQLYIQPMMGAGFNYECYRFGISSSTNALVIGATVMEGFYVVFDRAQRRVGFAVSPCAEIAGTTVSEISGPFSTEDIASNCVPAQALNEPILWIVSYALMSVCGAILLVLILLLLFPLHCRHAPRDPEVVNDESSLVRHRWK
The test can be described thus: Assay for BACE inhibition by measuring cellular TMEM27 cleavage. The format is cell-based. To be noted: INS-TMEM27 cells (INS1e-derived); shed TMEM27 by ELISA; read-out: BACE2 cell act. IC50. The method in brief: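 Ins1e-derived INS-TMEM27 rat cells with doxycycline-inducible full-length human TMEM27; inhibitor added 2 h before doxycycline (500 ng/ml final), then 46 h at 37 °C. Shed TMEM27 in supernatant quantified by sandwich ELISA with anti-human-TMEM27 antibodies; EC50 from curve fit across inhibitor concentrations.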
(In general: In an ELISA, binding on a coated surface is turned into a signal by an enzyme label.)

A further test is described as follows: in vivo effect. To be noted: po; % of control @ 30 mg/kg p.o.
Test [1] deals with T2, recombinant human cathepsin E (Homo sapiens, UniProt P14091).
T2 construct: purchased R&D Systems
T2 sequence (P14091 54-396): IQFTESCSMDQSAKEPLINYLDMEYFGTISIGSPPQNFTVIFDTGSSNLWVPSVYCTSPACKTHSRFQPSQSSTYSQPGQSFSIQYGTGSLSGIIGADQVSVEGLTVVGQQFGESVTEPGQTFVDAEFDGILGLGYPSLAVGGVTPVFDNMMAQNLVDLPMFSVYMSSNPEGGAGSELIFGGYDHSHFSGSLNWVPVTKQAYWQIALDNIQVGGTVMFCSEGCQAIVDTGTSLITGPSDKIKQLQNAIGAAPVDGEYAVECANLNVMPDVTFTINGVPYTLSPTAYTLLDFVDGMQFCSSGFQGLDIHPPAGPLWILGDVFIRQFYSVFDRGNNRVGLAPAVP
The experiment in a line: Cathepsin E fluorescent substrate kinetic assay. Type of test: biochemical. To be noted: pH 4.5. From the text: (§1) Cathepsin D and Cathepsin E Fluorescent Substrate Kinetic Assays
The MR121 fluorescence assays described below are based on the fact that MR121 forms a non-fluorescent ground state complex with tryptophan. In solution this formation occurs at millimolar concentrations of tryptophan. The mechanism can be used to design a generic biochemical assay for proteases. […] In absence of protease activity, the substrates remain intact and the MR121 fluorescence is reduced by the high local Trp-concentration. If the substrates are cleaved by the enzymes the MR121 fluorescence is recovered.
The fluorescent substrate cathepsin D and cathepsin E kinetic assays were performed at room temperature in 384-well microtiter plates (black with clear flat bottom, non binding surface plates from Corning) in a final volume of 51 μl. The test compounds were serially diluted in DMSO (15 concentrations, 1/3 dilution steps) and 1 μl of diluted compounds were mixed for 10 min with 40 μl of cathepsin D (from human liver, Calbiochem) diluted in assay buffer (100 mM sodium acetate, 0.05% BSA, pH 5.5; final concentration: 200 nM) or with 40 μl of recombinant human cathepsin E (R&D Systems) diluted in assay buffer (100 mM sodium acetate, 0.05% BSA, pH 4.5; final concentration: 0.01 nM). […] The enzymatic reaction was followed in a plate: vision reader (Perkin Elmer) (excitation wavelength: 630 nm; emission: 695 nm) for at least 30 minutes in a kinetic measurement detecting an increase of MR121 fluorescence during the reaction time. The slope in the linear range of the kinetic was calculated and the IC50 of the test compounds were determined using a four parameter equation for curve fitting.

For test [2], the target named is T3, cathepsin D (from human liver) (Homo sapiens, UniProt P07339).
T3 construct: cathepsin D (from human liver, Calbiochem); purchased Calbiochem; host or cells: human liver
T3 sequence (P07339 65-412): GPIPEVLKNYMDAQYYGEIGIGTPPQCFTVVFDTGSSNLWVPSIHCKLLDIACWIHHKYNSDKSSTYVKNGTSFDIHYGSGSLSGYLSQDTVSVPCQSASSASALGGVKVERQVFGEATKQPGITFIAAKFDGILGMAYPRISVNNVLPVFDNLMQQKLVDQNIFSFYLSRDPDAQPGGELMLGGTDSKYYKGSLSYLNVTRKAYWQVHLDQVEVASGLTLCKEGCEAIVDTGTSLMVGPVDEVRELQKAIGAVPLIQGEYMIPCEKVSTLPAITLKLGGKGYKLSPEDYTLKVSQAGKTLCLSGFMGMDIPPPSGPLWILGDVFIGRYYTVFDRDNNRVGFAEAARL
The experiment in a line: Cathepsin D fluorescent substrate kinetic assay. The format is biochemical. To be noted: pH 5.5.
Source text: as §1
The MR121 fluorescence assays described below are based on the fact that MR121 forms a non-fluorescent ground state complex with tryptophan. In solution this formation occurs at millimolar concentrations of tryptophan. The mechanism can be used to design a generic biochemical assay for proteases. A substrate peptide is labeled at the N-terminus with tryptophan and at the C-terminus with the fluorophore MR121 (for cathepsin D the 10 amino acid peptide […]-MR121 was used; for cathepsin E, MR121-[…] was used). In absence of protease activity, the substrates remain intact and the MR121 fluorescence is reduced by the high local Trp-concentration. If the substrates are cleaved by the enzymes the MR121 fluorescence is recovered.
The fluorescent substrate cathepsin D and cathepsin E kinetic assays were performed at room temperature in 384-well microtiter plates (black with clear flat bottom, non binding surface plates from Corning) in a final volume of 51 μl. The test compounds were serially diluted in DMSO (15 concentrations, 1/3 dilution steps) and 1 μl of diluted compounds were mixed for 10 min with 40 μl of cathepsin D (from human liver, Calbiochem) diluted in assay buffer (100 mM sodium acetate, 0.05% BSA, pH 5.5; final concentration: 200 nM) or with 40 μl of recombinant human cathepsin E (R&D Systems) diluted in assay buffer (100 mM sodium acetate, 0.05% BSA, pH 4.5; final concentration: 0.01 nM). After addition of 10 μl of the cathepsin D substrate […]-MR121 diluted in cathepsin D assay buffer (final concentration: 300 nM) or 10 µl of the cathepsin E substrate MR121-[…] diluted in cathepsin E assay buffer (final concentration: 300 nM), the plates were strongly shaken for 2 minutes. The enzymatic reaction was followed in a plate: vision reader (Perkin Elmer) (excitation wavelength: 630 nm; emission: 695 nm) for at least 30 minutes in a kinetic measurement detecting an increase of MR121 fluorescence during the reaction time. The slope in the linear range of the kinetic was calculated and the IC50 of the test compounds were determined using a four parameter equation for curve fitting.

The target of another test is T4, BACE1 (Homo sapiens, UniProt P56817).
T4 construct: Human HEK293 cells which are stably transfected with a vector expressing a cDNA of the human APP wt gene (APP695); endogenous in cells; host or cells: HEK293 stably transfected with human APP695 wt
T4 sequence (P56817 46-501): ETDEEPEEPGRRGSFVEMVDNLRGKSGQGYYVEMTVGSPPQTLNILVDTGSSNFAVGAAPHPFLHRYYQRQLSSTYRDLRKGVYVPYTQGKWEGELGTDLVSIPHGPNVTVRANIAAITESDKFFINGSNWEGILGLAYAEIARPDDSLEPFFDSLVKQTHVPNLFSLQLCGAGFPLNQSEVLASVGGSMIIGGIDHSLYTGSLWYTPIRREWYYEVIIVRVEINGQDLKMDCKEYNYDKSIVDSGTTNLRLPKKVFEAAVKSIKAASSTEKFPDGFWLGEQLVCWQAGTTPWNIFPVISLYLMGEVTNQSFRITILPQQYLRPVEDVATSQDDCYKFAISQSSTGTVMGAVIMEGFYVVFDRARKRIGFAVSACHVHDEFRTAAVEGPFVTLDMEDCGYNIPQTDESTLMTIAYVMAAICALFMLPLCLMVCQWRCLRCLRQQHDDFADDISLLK
The test can be described thus: Cellular Aβ-lowering assay (Aβ40 ELISA). The format is cell-based. To be noted: HEK293 cells stably expressing human APP695; Aβ40 in culture supernatant; read-out: BACE1 cell act. Aβ40 IC50. In short, it runs like this: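 Aβ40 in supernatant measured by sandwich ELISA (TMB, 450 nm) and quantified against a pure Aβ peptide standard curve.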

On to `C[C@]1(c2cc(NC(=O)c3ccc(C#N)cn3)ccc2F)N=C(N)OCC1(F)F` [Example 11, 5-Cyano-pyridine-2-carboxylic acid [3-((R)-2-amino-5,5-difluoro-4-methyl-5,6-dihydro-4H-[1,3]oxazin-4-yl)-4-fluoro-phenyl]-amide], for which the results for the IC50 (at BACE2; in test [1]; in test [2]) were 74 nM, 73000 nM and 69000 nM, respectively. In “in vivo effect”, this compound yielded a response vs control in vivo at 30 mg/kg below 50%.
As to `Cc1nc(C(=O)Nc2ccc(F)c([C@@]3(C)N=C(N)OCC3(F)F)c2)c(C)o1` [Example 59, 2,5-Dimethyl-oxazole-4-carboxylic acid [3-((R)-2-amino-5,5-difluoro-4-methyl-5,6-dihydro-4H-[1,3]oxazin-4-yl)-4-fluoro-phenyl]-amide], the IC50 at BACE1 worked out at 43 nM; at BACE2, 97 nM.
Regarding `CC1(C)OC(N)=N[C@](C)(c2cc(NC(=O)c3ccc(OCC(F)(F)F)cn3)ccc2F)C1(F)F` [Example 29, 5-(2,2,2-Trifluoro-ethoxy)-pyridine-2-carboxylic acid [3-((R)-2-amino-5,5-difluoro-4,6,6-trimethyl-5,6-dihydro-4H-[1,3]oxazin-4-yl)-4-fluoro-phenyl]-amide], the IC50 was 140 nM at BACE1 and 44300 nM on BACE2.
The corresponding values for `Cc1cnc(C(=O)Nc2ccc(F)c([C@@]3(C)N=C(N)OC(C)(C)C3(F)F)c2)cn1` [Example 34, 5-Methyl-pyrazine-2-carboxylic acid [3-((R)-2-amino-5,5-difluoro-4,6,6-trimethyl-5,6-dihydro-4H-[1,3]oxazin-4-yl)-4-fluoro-phenyl]-amide] are 43 nM and 3580 nM.
On to `C[C@]1(c2cc(NC(=O)c3ccc(C#N)cn3)cc(F)c2F)N=C(N)OCC1(F)F` [Example 49, 5-Cyano-pyridine-2-carboxylic acid [3-((R)-2-amino-5,5-difluoro-4-methyl-5,6-dihydro-4H-[1,3]oxazin-4-yl)-4,5-difluoro-phenyl]-amide], for which the IC50 was 26 nM at BACE1 and 151 nM on BACE2.
The corresponding values for `C[C@]1(c2cc(NC(=O)c3ccc(OCC(F)F)cn3)ccc2F)N=C(N)OCC1(F)F` [Example 45, 5-(2,2-Difluoro-ethoxy)-pyridine-2-carboxylic acid [3-((R)-2-amino-5,5-difluoro-4-methyl-5,6-dihydro-4H-[1,3]oxazin-4-yl)-4-fluoro-phenyl]-amide] are 400 nM and 25700 nM.
With `C[C@]1(c2cccc(NC(=O)c3ccc(C#N)cn3)c2)N=C(N)OCC1(F)F` [Example 53, 5-Cyano-pyridine-2-carboxylic acid [3-((R)-2-amino-5,5-difluoro-4-methyl-5,6-dihydro-4H-[1,3]oxazin-4-yl)-phenyl]-amide], the IC50 was determined as 13 nM at BACE1 and 349 nM at BACE2.
Taken in the same sequence, the figures for `C[C@]1(c2cc(NC(=O)c3[nH]ncc3Cl)ccc2F)N=C(N)OCC1(F)F` [Example 65, 4-Chloro-2H-pyrazole-3-carboxylic acid [3-((R)-2-amino-5,5-difluoro-4-methyl-5,6-dihydro-4H-[1,3]oxazin-4-yl)-4-fluoro-phenyl]-amide] were 404 nM and 543 nM.
The corresponding values for `C[C@]1(c2cccc(NC(=O)c3ccc(Cl)cn3)c2)N=C(N)OCC1(F)F` [Example 52, 5-Chloro-pyridine-2-carboxylic acid [3-((R)-2-amino-5,5-difluoro-4-methyl-5,6-dihydro-4H-[1,3]oxazin-4-yl)-phenyl]-amide] are 9 nM and 35 nM.
On to `CC1(C)OC(N)=N[C@](C)(c2cc(NC(=O)c3ccc(Cl)cn3)ccc2F)C1(F)F` [Example 19, 5-Chloro-pyridine-2-carboxylic acid [3-((R)-2-amino-5,5-difluoro-4,6,6-trimethyl-5,6-dihydro-4H-[1,3]oxazin-4-yl)-4-fluoro-phenyl]-amide], for which the 50% inhibitory concentration (IC50) stood at 70 nM at BACE1 and 120 nM on BACE2.
As for `C[C@]1(c2cc(NC(=O)c3ncccc3C(F)(F)F)ccc2F)N=C(N)OCC1(F)F` [Example 6, 3-Trifluoromethyl-pyridine-2-carboxylic acid [3-((R)-2-amino-5,5-difluoro-4-methyl-5,6-dihydro-4H-[1,3]oxazin-4-yl)-4-fluoro-phenyl]-amide], the values for the half-maximal inhibitory concentration (IC50) on BACE1 and at BACE2 were 180 nM and 330 nM, respectively.
